Here are results for two compounds from PubChem BioAssay AID624000 (Vanderbilt Specialized Chemistry Center, 2012).

In this test the target is Phospholipase D2 (Homo sapiens) + Phospholipase D2 (Homo sapiens) (UniProt O14939+O14939). The test can be described thus: purified PLD2 enzyme inhibitors, dose response, biochemical, assay 3B, library 32 (AID 624000). Conditions: purified PLD2 enzyme activity.
Chain of Phospholipase D2 (Homo sapiens) + Phospholipase D2 (Homo sapiens) (O14939 whole entry, looked up): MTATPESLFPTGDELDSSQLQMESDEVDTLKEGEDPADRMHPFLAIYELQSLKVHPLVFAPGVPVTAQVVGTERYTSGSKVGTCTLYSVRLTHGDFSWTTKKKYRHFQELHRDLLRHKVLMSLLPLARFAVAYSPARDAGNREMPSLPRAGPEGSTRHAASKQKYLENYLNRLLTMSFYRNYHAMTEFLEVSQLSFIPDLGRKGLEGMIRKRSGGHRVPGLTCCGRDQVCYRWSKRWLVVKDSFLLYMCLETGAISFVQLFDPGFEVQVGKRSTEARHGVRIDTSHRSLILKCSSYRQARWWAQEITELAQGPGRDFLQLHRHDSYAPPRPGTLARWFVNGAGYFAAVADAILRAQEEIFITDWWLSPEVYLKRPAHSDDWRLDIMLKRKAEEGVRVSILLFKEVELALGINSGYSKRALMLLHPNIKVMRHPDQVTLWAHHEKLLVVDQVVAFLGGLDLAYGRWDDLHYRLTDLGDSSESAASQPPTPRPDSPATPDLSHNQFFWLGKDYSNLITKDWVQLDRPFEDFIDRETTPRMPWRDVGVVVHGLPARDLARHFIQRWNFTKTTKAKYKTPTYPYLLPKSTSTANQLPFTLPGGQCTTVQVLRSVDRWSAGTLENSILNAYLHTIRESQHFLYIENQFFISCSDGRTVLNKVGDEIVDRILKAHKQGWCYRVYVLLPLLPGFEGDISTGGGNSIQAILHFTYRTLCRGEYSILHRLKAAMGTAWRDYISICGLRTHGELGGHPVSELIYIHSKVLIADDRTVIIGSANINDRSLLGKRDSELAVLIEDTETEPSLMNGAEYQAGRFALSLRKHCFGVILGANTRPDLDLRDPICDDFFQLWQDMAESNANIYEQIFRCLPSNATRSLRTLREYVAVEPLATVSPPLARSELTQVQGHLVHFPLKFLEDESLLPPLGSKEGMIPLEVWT
Chain of Phospholipase D2 (Homo sapiens) + Phospholipase D2 (Homo sapiens) (O14939 whole entry, looked up): as above

The term IC50 denotes the concentration needed to halve the response being measured. As for `C[C@@H](CN1CCC2(CC1)C(=O)NCN2c1cccc(F)c1)NC(=O)c1ccc(Br)cc1`, the IC50 is 84 nM. Take `COc1cc(C(=O)NCCN2CCC3(CC2)C(=O)NCN3c2cccc(F)c2)cc(OC)c1OC`: the IC50 was 1430 nM.
